The source of these data is patent publication US6617425B1, “Peptides” (Novartis AG, priority 1996, dated 2003).

Data set [1] in a line: oral bioavailability in the rat. The following applies: in vivo, read-out: absolute oral bioavailabilty. As for the experimental part: The oral bioavailability of a model β-peptide according to the invention, β-HAla-β-HLys-β-HAla-β-HLeu-β-HLys-β-HAla-β-HLeu, TFA salt is determined in the rat using standard procedures. The absolute oral bioavailabilty is found to be about 1%. It is to be expected that greater oral bioavailability may be seeen with other compounds of the invention, having substituents selected to improve this property.

Data set [2] is described as follows: pharmacokinetics after intravenous administration to rats. The settings on record: in vivo, rat. Here is the method:
The above compound is also administered intravenously to rats and found to have a relatively long terminal half life in blood of about 10 hours, with a systemic clearance of about 15 ml/min/kg and a volume of distribution of about 2 l/kg. It appears therefore that the relatively low oral bioavailability of the compound is due to low absorption from the gastrointestinal tract.

SMILES strings stand for the structures.

For `CC(C)C[C@@H](CC(=O)O)NC(=O)C[C@H](C)NC(=O)C[C@H](CCCCN)NC(=O)C[C@H](CC(C)C)NC(=O)C[C@H](C)NC(=O)C[C@H](CCCCN)NC(=O)C[C@H](C)N` [β-HAla-β-HLys-β-HAla-β-HLeu-β-HLys-β-HAla-β-HLeu], the bioavailability in data set [1] is roughly 1%. For the same compound, in data set [2] (blood, read-out: terminal half life in blood (converted)), the half-life (usually the time needed for the level to fall by half in the phase considered) is roughly 10 h. In addition, the clearance (usually the volume of plasma or blood freed of the substance per unit of time) in data set [2] (read-out: systemic clearance) was roughly 15 mL/min/kg. Also, in data set [2] (read-out: volume of distribution), the Vd was roughly 2 L/kg.
